The values that follow come from PubChem BioAssay (NCI).

Common to all, as to assay: NCI anticancer screen, dose series, 48 h
The test system of assay [1] is RPMI-8226 leukemia.
The subject of assay [2] is SK-OV-3 ovarian.
For assay [3], the system named is SK-MEL-28 melanoma.
Assay [4] concerns CCRF-CEM leukemia.
Assay [5] relates to SF-295 CNS.
Assay [6] relates to SK-MEL-2 melanoma.
In assay [7] the test system is OVCAR-5 ovarian.
Assay [8] deals with HL-60(TB) leukemia.
The test system of assay [9] is MALME-3M melanoma.
Assay [10] relates to OVCAR-8 ovarian.
In assay [11] the test system is SK-MEL-5 melanoma.

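In this assay, cells in 96-well plates receive the compound at five concentrations for 48 hours. Endpoints are linearly interpolated between the surrounding concentrations. GI50 is the concentration that inhibits growth by half. TGI: total growth inhibition.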 Some results are limits rather than exact numbers.

For `O=C(N/C(=C\c1cccc([N+](=O)[O-])c1)c1nc2[nH]c(=S)[nH]c(=O)c2[nH]1)c1ccccc1`, the TGI in assay [1], in assay [2], in [3], in [4], in assay [5] and in assay [6] was more than 100 µM each time. The TGI in assay [7], in assay [8], in assay [9], in [10] and in assay [11] was more than 100 µM in each case.

`O=C(O)c1ccc([N+]2=Cn3c(nc4ccccc43)C2)cc1`: the TGI in assay [1], in assay [2], in [3], in [4], in assay [5] and in [6] was more than 100 µM throughout. For the same molecule, the TGI was more than 100 µM in assay [7]; more than 100 µM in [8]; 3.05 µM in assay [9]; more than 100 µM in assay [10]; more than 100 µM in [11].

With `O=C(O)c1cc2cc(c1)N=Cc1ccccc1OCc1cccc(n1)COc1ccccc1C=N2`, the TGI in assay [1] is 22 µM; in assay [2], more than 25 µM; in [3] it was more than 25 µM; in assay [4], more than 25 µM; in [5], 22.1 µM; in [6], more than 25 µM. Besides, the TGI in [7] was more than 25 µM; in [8] it was more than 25 µM; in assay [9], 22.4 µM; in assay [10], more than 25 µM.

As for `CC[C@H](Nc1nc(N)nc(C)c1C#N)c1nc2cccc(NCc3ccc(C(=O)NO)cc3)c2c(=O)n1-c1ccccc1`, the GI50 was 2.27 µM in assay [1]; 2.05 µM in assay [2]; 0.679 µM in assay [4]; 2.43 µM in assay [6]; 1.49 µM in assay [7]; 3.04 µM in assay [8]. The GI50 is 1.63 µM in assay [9] and 2.19 µM in [10]. Besides, the TGI in [1] is 9.78 µM; in [2] it was 5.03 µM; in assay [4], more than 100 µM; in assay [6], 6.21 µM; in [7], 4.01 µM; in [8] it was more than 100 µM. Moreover, the figures for the TGI in assay [9] and in assay [10] were 4.13 µM and 6.83 µM, respectively.

As for `O=C1Nc2ccccc2S/C1=C\c1ccccc1C(F)(F)F`, the TGI in assay [1], in assay [2], in assay [3], in assay [4], in assay [5] and in assay [6] was more than 100 µM each time. For the same molecule, the TGI in assay [7], in assay [8], in assay [9], in [10] and in [11] was more than 100 µM each time.

For the molecule `CC(=O)O[C@H]1CC[C@@]2(C)C(=CC[C@@H]3[C@@H]2CC[C@]2(C)Nc4c(cnn4S(C)(=O)=O)C[C@@H]32)C1`, the TGI in [1], in assay [2], in [3], in [4], in assay [5] and in assay [6] was more than 100 µM in each case. Further, the TGI in assay [7] was more than 100 µM; in assay [8], 71.3 µM; in assay [9], more than 100 µM; in assay [10] it was more than 100 µM; in [11], 30.6 µM.

Turning to `Cc1ccc([N+](=O)[O-])cc1NC(=O)C(=O)C(C(=O)c1ccccc1F)C1OC(=O)c2ccccc21` (stereo unspecified), the TGI in assay [1], in assay [2], in [3], in assay [4], in assay [5] and in [6] was more than 100 µM throughout. Further, the TGI in [7] was more than 100 µM; in [8] it was more than 100 µM; in [10] it was 90.8 µM; in [11] it was more than 100 µM.

As to `N=c1nc2n(cc1F)[C@@H]1O[C@H](CO)[C@@H](O)[C@@H]1O2`, the TGI was more than 100 µM in [1]; more than 100 µM in assay [2]; more than 100 µM in [3]; more than 12.3 µM in assay [4]; more than 100 µM in assay [5]; more than 100 µM in [6]. The TGI in assay [7] is more than 100 µM; in [8], more than 40.9 µM; in assay [9], more than 34 µM; in assay [10], more than 100 µM; in assay [11], more than 74.7 µM.

Consider `NC(=S)Nc1cc(Cl)ccc1Cl`, for which the TGI in assay [1], in [2], in [3], in assay [4], in [5] and in assay [6] was more than 100 µM each time. Further, the TGI in [7], in [8], in assay [9], in assay [10] and in assay [11] was more than 100 µM each time.

Regarding `CCOC(=O)Nc1cc2c(c(N)n1)N=C(c1ccccc1)[C@H](C)N2`, the TGI was 22.4 µM in assay [1]; 78.8 µM in assay [2]; 0.0464 µM in assay [4]; 13.6 µM in assay [6]; 53.9 µM in assay [7]; less than 0.0001 µM in assay [8]. In addition, the results for the TGI in [9] and in assay [10] were 16.4 µM and more than 100 µM, respectively. For the same molecule, in [2], the GI50 was less than 0.0001 µM.

With `Oc1ccc2oc3c(O)c4ccccc4cc3c2c1`, the TGI in assay [1] was 3.96 µM; in assay [2], 53.2 µM; in [3] it was more than 100 µM; in [4] it was 8.47 µM; in assay [6], 93 µM; in [8], 13.5 µM. Further, the TGI in assay [9] was 33.4 µM; in assay [10], 16.5 µM; in [11], 7.5 µM.

Turning to `O=[N+]([O-])c1ccc2c(c1)Nc1c3ccccc3nc3cccc-2c13`, the TGI in assay [1] was more than 39 µM; in assay [2] it was 8.41 µM; in assay [3], 24.8 µM; in assay [4], 6.19 µM; in assay [5] it was 6.98 µM; in [6], 39.5 µM. The TGI in assay [7] is 20.5 µM; in assay [8], more than 23.1 µM; in assay [9] it was 19.4 µM; in assay [10] it was 40.4 µM; in assay [11], 5.51 µM.

Regarding `Oc1c2c(c3c4c1N=CC=4CCN=3)-c1c(Br)cc(Br)cc1CCN2`, the TGI in [1] came to 17.5 µM; in assay [2] it was 24.9 µM; in assay [3] it was 21.8 µM; in assay [4] it was 6.7 µM; in assay [5] it was 11 µM; in assay [6] it was 13.5 µM. Also, the TGI in assay [7] worked out at 8.66 µM; in [8], 4.09 µM; in assay [10], 12.1 µM; in assay [11], 3.38 µM.
